The text below walks through data of ChEMBL document CHEMBL1133914, “Conformationally restricted indolopiperidine derivatives as potent CCR2B receptor antagonists” (Bioorg Med Chem Lett, 2001).

Assay [1] has as its target T1, 5-hydroxytryptamine receptor 1A (Homo sapiens) (UniProt P08908).
T1 sequence (whole entry): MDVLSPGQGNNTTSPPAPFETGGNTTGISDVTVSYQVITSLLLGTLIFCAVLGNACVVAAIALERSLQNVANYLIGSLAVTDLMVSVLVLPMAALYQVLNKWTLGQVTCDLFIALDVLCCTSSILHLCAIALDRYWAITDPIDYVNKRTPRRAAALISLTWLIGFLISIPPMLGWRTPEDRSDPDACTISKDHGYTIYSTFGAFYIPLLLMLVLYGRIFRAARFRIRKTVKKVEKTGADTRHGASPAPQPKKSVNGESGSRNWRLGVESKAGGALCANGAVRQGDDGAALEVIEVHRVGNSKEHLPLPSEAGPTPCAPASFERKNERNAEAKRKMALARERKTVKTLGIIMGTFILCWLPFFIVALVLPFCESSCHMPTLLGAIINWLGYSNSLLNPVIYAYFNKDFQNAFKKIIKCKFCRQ
Briefly: Binding affinity relative to indolopiperidine (compound 1) for 5-hydroxytryptamine 1A receptor was determined.

The target of assay [2] is T2, 5-hydroxytryptamine receptor 1E (Homo sapiens, UniProt P28566). Nature of the assay: Binding affinity relative to indolopiperidine (compound 1) for 5-hydroxytryptamine 1E receptor was determined.
T2 sequence (P28566 whole entry): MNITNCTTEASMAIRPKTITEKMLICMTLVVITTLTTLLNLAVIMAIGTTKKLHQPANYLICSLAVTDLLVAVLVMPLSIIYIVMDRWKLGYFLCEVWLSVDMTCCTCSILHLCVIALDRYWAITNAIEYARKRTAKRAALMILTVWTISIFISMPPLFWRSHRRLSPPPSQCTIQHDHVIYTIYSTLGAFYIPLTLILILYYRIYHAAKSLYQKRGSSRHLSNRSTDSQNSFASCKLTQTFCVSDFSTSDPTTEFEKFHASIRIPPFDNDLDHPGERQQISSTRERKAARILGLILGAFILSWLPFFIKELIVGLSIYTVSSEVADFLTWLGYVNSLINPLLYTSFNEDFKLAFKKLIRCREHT
Assay [3] addresses T3, 5-hydroxytryptamine receptor 1F (Homo sapiens) (UniProt P30939).
T3 sequence (whole entry): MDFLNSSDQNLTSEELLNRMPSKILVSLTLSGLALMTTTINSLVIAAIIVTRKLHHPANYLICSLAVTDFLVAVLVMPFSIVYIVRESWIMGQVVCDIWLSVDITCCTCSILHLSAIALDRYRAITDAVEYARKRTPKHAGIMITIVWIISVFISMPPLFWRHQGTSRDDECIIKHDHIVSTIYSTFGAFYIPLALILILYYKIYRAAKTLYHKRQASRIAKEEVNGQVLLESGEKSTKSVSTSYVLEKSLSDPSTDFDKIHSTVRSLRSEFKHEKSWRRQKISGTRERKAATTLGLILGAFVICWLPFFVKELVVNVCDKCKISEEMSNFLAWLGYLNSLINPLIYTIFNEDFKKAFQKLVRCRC
Briefly: Binding affinity relative to indolopiperidine (compound 1) for 5-hydroxytryptamine 1F receptor was determined.

The target of assay [4] is T4, 5-hydroxytryptamine receptor 7 (Homo sapiens, UniProt P34969). Briefly: (§1) Binding affinity relative to indolopiperidine (compound 1) for 5-hydroxytryptamine 7 receptor was determined.
T4 sequence (P34969 whole entry): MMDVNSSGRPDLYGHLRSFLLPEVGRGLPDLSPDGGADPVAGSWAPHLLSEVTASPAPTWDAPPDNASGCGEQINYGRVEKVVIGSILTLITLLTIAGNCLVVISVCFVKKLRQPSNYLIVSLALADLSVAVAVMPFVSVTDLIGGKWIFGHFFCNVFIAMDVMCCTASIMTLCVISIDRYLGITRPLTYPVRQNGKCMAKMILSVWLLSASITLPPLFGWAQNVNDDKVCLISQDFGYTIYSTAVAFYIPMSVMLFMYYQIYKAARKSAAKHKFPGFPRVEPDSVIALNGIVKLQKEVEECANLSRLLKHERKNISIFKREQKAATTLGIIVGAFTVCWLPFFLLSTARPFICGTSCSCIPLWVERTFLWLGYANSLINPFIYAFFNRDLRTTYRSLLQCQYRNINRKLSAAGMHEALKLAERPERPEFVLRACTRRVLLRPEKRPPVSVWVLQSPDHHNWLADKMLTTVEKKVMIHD
Assay [5] addresses T5, 5-hydroxytryptamine receptor 2C (Homo sapiens) (UniProt P28335).
T5 sequence (whole entry): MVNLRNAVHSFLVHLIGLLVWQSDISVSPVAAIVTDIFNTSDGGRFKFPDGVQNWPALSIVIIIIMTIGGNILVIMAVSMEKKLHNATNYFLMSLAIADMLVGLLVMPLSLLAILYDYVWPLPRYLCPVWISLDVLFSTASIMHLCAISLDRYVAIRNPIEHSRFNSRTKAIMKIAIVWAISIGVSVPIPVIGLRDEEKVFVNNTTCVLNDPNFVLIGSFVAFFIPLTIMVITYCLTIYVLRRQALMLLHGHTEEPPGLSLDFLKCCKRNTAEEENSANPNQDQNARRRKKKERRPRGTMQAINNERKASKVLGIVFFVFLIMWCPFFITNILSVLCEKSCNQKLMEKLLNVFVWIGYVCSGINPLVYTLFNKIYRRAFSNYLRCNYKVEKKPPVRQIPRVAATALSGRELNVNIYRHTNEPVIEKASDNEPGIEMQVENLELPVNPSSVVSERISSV
Briefly: Binding affinity relative to indolopiperidine (compound 1) for 5-hydroxytryptamine 2C receptor was determined.

In assay [6] the target is T6, 5-hydroxytryptamine receptor 2A (Homo sapiens, UniProt P28223). Nature of the assay: Binding affinity relative to indolopiperidine (compound 1) for 5-hydroxytryptamine 2A receptor was determined.
T6 sequence (P28223 whole entry): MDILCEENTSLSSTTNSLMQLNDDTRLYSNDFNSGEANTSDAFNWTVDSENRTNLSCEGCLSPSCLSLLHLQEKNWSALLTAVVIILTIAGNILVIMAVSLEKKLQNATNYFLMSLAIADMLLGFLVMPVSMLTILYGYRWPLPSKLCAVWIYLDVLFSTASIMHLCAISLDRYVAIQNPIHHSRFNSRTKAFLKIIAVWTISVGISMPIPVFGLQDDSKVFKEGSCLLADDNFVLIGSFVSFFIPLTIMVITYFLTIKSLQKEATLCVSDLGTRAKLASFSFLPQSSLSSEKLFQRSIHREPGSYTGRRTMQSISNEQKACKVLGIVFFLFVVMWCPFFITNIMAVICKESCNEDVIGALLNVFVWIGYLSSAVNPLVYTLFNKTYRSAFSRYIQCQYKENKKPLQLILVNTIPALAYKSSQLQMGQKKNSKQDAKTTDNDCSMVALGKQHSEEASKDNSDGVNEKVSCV
The target in assay [7] is T7, C-C chemokine receptor type 2 (Homo sapiens, UniProt P41597).
Target sequence in this assay (P41597 whole entry, looked up): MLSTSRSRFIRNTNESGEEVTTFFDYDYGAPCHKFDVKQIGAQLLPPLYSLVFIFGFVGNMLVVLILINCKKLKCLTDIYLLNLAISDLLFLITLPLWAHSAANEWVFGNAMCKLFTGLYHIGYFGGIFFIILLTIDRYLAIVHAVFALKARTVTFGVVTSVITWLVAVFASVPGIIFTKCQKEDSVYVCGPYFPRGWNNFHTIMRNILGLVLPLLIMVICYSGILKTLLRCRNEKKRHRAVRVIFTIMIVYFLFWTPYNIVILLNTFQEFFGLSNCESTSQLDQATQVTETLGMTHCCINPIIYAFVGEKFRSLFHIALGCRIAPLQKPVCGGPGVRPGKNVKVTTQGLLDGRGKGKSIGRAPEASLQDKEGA
Assay [8] deals with T8, 5-hydroxytryptamine receptor 6 (Homo sapiens, UniProt P50406). Nature of the assay: Binding affinity relative to indolopiperidine (compound 1) for 5-hydroxytryptamine 6 receptor was determined.
T8 sequence (P50406 whole entry): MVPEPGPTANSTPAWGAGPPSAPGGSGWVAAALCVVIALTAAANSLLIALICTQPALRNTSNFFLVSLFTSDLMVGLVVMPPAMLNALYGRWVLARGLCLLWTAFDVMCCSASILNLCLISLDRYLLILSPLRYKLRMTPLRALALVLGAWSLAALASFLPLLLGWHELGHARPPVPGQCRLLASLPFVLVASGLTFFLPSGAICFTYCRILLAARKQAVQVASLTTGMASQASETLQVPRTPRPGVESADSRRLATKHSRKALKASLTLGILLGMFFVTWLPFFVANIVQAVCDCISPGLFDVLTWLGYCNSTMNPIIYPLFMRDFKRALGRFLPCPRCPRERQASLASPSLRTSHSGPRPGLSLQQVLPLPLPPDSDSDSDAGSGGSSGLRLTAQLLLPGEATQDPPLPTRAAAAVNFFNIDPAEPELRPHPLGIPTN
The target of assay [9] is T9, D(2) dopamine receptor (Homo sapiens, UniProt P14416). Briefly: (§2) Binding affinity relative to indolopiperidine (compound 1) for Dopamine receptor D2 was determined.
T9 sequence (P14416 whole entry): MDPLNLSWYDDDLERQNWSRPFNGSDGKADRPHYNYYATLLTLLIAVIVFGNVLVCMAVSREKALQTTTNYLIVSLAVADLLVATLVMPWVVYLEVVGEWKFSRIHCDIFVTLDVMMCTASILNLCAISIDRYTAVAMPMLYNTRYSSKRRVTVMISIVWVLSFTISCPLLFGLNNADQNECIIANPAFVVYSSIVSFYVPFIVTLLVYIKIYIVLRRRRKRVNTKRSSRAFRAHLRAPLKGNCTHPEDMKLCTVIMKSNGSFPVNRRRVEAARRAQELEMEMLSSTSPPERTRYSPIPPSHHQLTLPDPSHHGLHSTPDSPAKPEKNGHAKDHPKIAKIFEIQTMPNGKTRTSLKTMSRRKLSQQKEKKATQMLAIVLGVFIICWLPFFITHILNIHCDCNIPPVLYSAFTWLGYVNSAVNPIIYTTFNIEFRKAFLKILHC
Assay [10] deals with T10, 5-hydroxytryptamine receptor 2B (Homo sapiens, UniProt P41595). Nature of the assay: Binding affinity relative to indolopiperidine (compound 1) for 5-hydroxytryptamine 2B receptor was determined.
T10 sequence (P41595 whole entry): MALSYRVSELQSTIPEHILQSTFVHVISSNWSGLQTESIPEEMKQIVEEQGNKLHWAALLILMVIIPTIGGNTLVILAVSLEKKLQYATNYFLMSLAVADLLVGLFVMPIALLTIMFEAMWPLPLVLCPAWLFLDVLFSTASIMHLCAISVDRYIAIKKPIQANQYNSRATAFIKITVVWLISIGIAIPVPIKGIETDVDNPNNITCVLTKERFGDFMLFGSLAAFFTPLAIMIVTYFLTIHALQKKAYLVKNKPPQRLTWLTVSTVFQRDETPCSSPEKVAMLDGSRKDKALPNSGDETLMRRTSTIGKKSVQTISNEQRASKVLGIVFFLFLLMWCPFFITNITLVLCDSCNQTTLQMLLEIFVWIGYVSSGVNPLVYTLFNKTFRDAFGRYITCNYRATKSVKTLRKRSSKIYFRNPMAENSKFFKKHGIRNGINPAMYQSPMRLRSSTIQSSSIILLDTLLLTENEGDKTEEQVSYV
Assay [11] deals with T11, D(3) dopamine receptor (Homo sapiens, UniProt P35462). Nature of the assay: (§3) Binding affinity relative to indolopiperidine (compound 1) for Dopamine receptor D3 was determined.
T11 sequence (P35462 whole entry): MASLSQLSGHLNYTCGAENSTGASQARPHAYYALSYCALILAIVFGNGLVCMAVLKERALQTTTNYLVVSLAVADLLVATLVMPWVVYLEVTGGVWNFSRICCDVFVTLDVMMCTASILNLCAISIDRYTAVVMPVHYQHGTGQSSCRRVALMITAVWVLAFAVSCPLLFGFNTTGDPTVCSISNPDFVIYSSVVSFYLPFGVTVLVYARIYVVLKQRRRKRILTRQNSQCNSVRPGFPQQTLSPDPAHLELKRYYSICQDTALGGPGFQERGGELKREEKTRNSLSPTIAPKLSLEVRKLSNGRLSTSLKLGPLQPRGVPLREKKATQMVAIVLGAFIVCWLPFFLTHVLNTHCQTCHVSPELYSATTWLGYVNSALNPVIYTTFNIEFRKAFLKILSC
The target in assay [12] is T12, 5-hydroxytryptamine receptor 1B (Homo sapiens, UniProt P28222). Nature of the assay: Binding affinity relative to indolopiperidine (compound 1) for 5-hydroxytryptamine 1B receptor was determined.
T12 sequence (P28222 whole entry): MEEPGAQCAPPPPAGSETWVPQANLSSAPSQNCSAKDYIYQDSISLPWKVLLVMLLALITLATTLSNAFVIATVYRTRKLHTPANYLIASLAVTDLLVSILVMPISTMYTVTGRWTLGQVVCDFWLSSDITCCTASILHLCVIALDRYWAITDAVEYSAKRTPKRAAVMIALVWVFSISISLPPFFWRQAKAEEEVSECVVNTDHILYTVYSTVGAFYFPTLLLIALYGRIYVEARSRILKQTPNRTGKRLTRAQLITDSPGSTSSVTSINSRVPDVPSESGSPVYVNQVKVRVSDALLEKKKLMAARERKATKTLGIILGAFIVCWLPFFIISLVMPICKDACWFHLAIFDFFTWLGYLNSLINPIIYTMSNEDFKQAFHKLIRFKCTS
Assay [13] deals with T7, C-C chemokine receptor type 2. Briefly: Inhibition of [125I]MCP-1 binding to the cloned C-C chemokine receptor type 2B expressed in CHO cells; IA means inactive. The class given is cell-based.
Target sequence in this assay (P41597 whole entry, looked up): as the sequence (P41597 whole entry, looked up) above
Assay [14] shares this target. Nature of the assay: Binding affinity for C-C chemokine receptor type 2B was determined.
Target sequence in this assay (P41597 whole entry): as the sequence (P41597 whole entry, looked up) above
The target of assay [15] is T12, 5-hydroxytryptamine receptor 1B. Nature of the assay: Binding affinity for 5-hydroxytryptamine 1B receptor was determined.
The target of assay [16] is T9, D(2) dopamine receptor. The description is as §2. This is another data set of the same source.
In assay [17] the target is T7, C-C chemokine receptor type 2. Nature of the assay: (§4) Inhibition of [125I]MCP-1 binding to the cloned C-C chemokine receptor type 2B expressed in CHO cells. It is filed as cell-based.
Target sequence in this assay (P41597 whole entry): as the sequence (P41597 whole entry, looked up) above
Assay [18] has as its target T13, 5-hydroxytryptamine receptor 1F (Homo sapiens, UniProt P30939).
T13 sequence (P30939 whole entry): T3 sequence (whole entry)
Nature of the assay: Binding affinity for 5-hydroxytryptamine 1F receptor was determined.

Assay [19] deals with T2, 5-hydroxytryptamine receptor 1E. Nature of the assay: Binding affinity for 5-hydroxytryptamine 1E receptor was determined.
The target of assay [20] is T4, 5-hydroxytryptamine receptor 7. The assay is described as §1. The source holds these as a separate data set.
The target of assay [21] is T14, 5-hydroxytryptamine receptor 1A (Homo sapiens, UniProt P08908).
T14 sequence (P08908 whole entry): T1 sequence (whole entry)
Nature of the assay: Binding affinity for 5-hydroxytryptamine 1A receptor was determined.

The target of assay [22] is T8, 5-hydroxytryptamine receptor 6. Nature of the assay: Binding affinity for 5-hydroxytryptamine 6 receptor was determined.
For assay [23], the target named is T7, C-C chemokine receptor type 2. Briefly: Binding affinity relative to indolopiperidine (compound 1) forC-C chemokine receptor type 2B was determined.
Target sequence in this assay (P41597 whole entry, looked up): as above
The target of assay [24] is T10, 5-hydroxytryptamine receptor 2B. Briefly: Binding affinity for 5-hydroxytryptamine 2B receptor was determined.
Assay [25] addresses T15, 5-hydroxytryptamine receptor 2C (Homo sapiens, UniProt P28335).
T15 sequence (P28335 whole entry): T5 sequence (whole entry)
Briefly: Binding affinity for 5-hydroxytryptamine 2C receptor was determined.

For assay [26], the target named is T6, 5-hydroxytryptamine receptor 2A. Nature of the assay: Binding affinity for 5-hydroxytryptamine 2A receptor was determined.
Assay [27] has as its target T11, D(3) dopamine receptor. The assay is described as §3. This is another data set of the same source.
For assay [28], the target named is T7, C-C chemokine receptor type 2. The assay is described as §4. It is filed as cell-based. The source holds these as a separate data set.
Target sequence in this assay (P41597 whole entry): as the sequence (P41597 whole entry, looked up) above
The target in assay [29] is T6, 5-hydroxytryptamine receptor 2A. Nature of the assay: Binding affinity relative to indolopiperidine (compound 1)for 5-hydroxytryptamine 2A receptor was determined.
The target in assay [30] is T7, C-C chemokine receptor type 2. Briefly: Binding affinity relative to indolopiperidine (compound 1) for C-C chemokine receptor type 2B was determined.
Target sequence in this assay (P41597 whole entry, looked up): as above
Assay [31] shares this target. The assay is described as §4. It is filed as cell-based. This is another data set of the same source.
Target sequence in this assay (P41597 whole entry): as the sequence (P41597 whole entry, looked up) above
Assay [32] has as its target T4, 5-hydroxytryptamine receptor 7. Briefly: Binding affinity for 5-hydroxytryptamine 7 receptor was determined.
Assay [33] deals with T9, D(2) dopamine receptor. Nature of the assay: Binding affinity for Dopamine receptor D2 was determined.
Assay [34] has as its target T11, D(3) dopamine receptor. Briefly: Binding affinity for Dopamine receptor D3 was determined.
Assay [35] concerns the target T7, C-C chemokine receptor type 2. Briefly: Inhibition of [125I]MCP-1 binding to the cloned C-C chemokine receptor type 2B expressed in CHO cells; IA mean inactive. It is filed as cell-based.
Target sequence in this assay (P41597 whole entry, looked up): as above

Several values for one entry are separate records, joined by “and”; a condition that tells them apart may be missing. Equal entries are not always repeated. Activity calls are given as the source filed them. The rule behind the calls is not given here.

Consider `O=C(/C=C/c1ccc(Cl)c(Cl)c1)NCCCCCN1[C@@H]2CC[C@H]1CC(c1c[nH]c3ccc(O)cc13)C2` (stereo in doubt) [listing 1 of 2 here], for which the Delta pKi in assay [1] is -1.1; in [2], -3.2; in assay [3] it was -2.7; in [4], -1.5; in assay [5], -0.5; in assay [6] it was -0.9. The Delta pKi was -0.7 in [7]; -0.9 in assay [8]; -1.7 in assay [9]; -1.5 in assay [10]; -1.4 in assay [11]; -1.6 in [12].

In the case of `O=C(/C=C/c1ccc(Cl)c(Cl)c1)Nc1ccc(CN2CCC(c3c[nH]c4ccccc34)CC2)cc1`, the “Log Ki” value in [13] is “inactive”.

Take `O=C(/C=C/c1ccc(Cl)c(Cl)c1)N[C@H]1CC[C@@H](CN2[C@@H]3CC[C@H]2C[C@H](c2c[nH]c4ccc(O)cc24)C3)CC1`: the Delta pKi is -1.9 in [1]; greater than -3.2 in [2]; greater than -3 in [3]; greater than -1.9 in [4]; greater than -1.6 in assay [5]; -3 in assay [6]. The Delta pKi in assay [8] was -1.4; in assay [9], -1.9; in assay [23] it was 0.1; in [10], -1.3; in assay [11], -2.5; in [12] it was -1.9. The Ki in assay [14] is 40 nM; in assay [15] it was 1000 nM; in assay [16], 1260 nM; in assay [17], 39.8 nM; in [18], greater than 3160 nM; in [19], greater than 6310 nM. Besides, the Ki is 7940 nM in assay [21]; 2000 nM in assay [22]; 501 nM in [24]; greater than 3160 nM in [25]; greater than 20000 nM in [26]; 2510 nM in assay [27]. Also, in [20], the “Log Ki” value is given as less than -6.1.

In the case of `O=C(/C=C/c1ccc(Cl)c(Cl)c1)N[C@H]1CC[C@@H](CN2CCC(c3c[nH]c4ccc(O)cc34)CC2)CC1`, the Delta pKi was -0.7 in assay [1]; -1.4 in assay [2]; -2.6 in assay [3]; -0.4 in assay [4]; -0.4 in [5]; -0.1 in assay [29]. For the same compound, the Delta pKi in assay [8] is -0.9; in [9], -0.8; in assay [10] it was -0.5; in assay [30], -0.2; in assay [11], -0.9; in assay [12] it was -1.2. For the same compound, the inhibition constant Ki in assay [17] is 79.4 nM; in assay [28], 79 nM and 126 nM.

For the compound `O=C(/C=C/c1ccc(Cl)c(Cl)c1)N[C@H]1CC[C@@H](CN2CCC(c3c[nH]c4ccccc34)CC2)CC1`, the affinity in assay [31], expressed as Ki, was 126 nM.

Consider `O=C(/C=C/c1ccc(Cl)c(Cl)c1)NCCCCCN1[C@@H]2CC[C@H]1CC(c1c[nH]c3ccc(O)cc13)C2` (stereo in doubt) [listing 2 of 2 here], for which the Ki in [17] and in [31] was 251 nM in each case.

On to `O=C(/C=C/c1ccc(Cl)c(Cl)c1)NCCCCCN1CCC(c2c[nH]c3ccc(O)cc23)CC1`, for which the inhibition constant (Ki) in assay [32] was 63.1 nM; in assay [15] it was 12.6 nM; in assay [18], 3.16 nM; in assay [19] it was 6.31 nM; in assay [21], 100 nM; in assay [33], 15.8 nM. The inhibition constant Ki was 7.94 nM in [34]; 79.4 nM in assay [22]; 25.1 nM in [24]; 79.4 nM in assay [25]; 20 nM in [26].

As to `O=C(/C=C/c1ccc(Cl)c(Cl)c1)NCc1cccc(CN2CCC(c3c[nH]c4ccccc34)CC2)c1`, in assay [35], the “Log Ki” value was “inactive”.

Regarding `O=C(/C=C/c1ccc(Cl)c(Cl)c1)NCCCCCN1[C@@H]2CC[C@H]1CC(c1c[nH]c3ccc(O)cc13)C2` (single isomer, unassigned), the Ki in [17] is 631 nM; in assay [28], 630 nM.
